Data reported in article PMC11204507, “Mechanistic Insights into the Neurotoxicity of 2,5-Dimethoxyphenethylamines (2C) and Corresponding N-(2-methoxybenzyl)phenethylamine (NBOMe) Drugs” (Journal of Xenobiotics, 2024).

Experiments:
[1] = system: primary rat cortical cultures; assay: Neutral red (NR) uptake cytotoxicity assay; assay type: cell-based; details: for Bottom (baseline, % control) / Top (maximal cell death, % control): fitted NR curve, primary rat cortical neurons, 24 h; for EC50: primary rat cortical cultures, 24 h of exposure, mean (95% CI)
Description: Female Wistar rats were obtained from Charles River Laboratories. The animals were allowed free access to rat chow and water, being maintained on a 12 h/12 h light/dark cycle, under controlled temperature (20 ± 2 °C) and humidity (40–60%). Primary cortical cultures were prepared as previously described. Briefly, for embryo collection, the pregnant female Wistar rats were anesthetized with isoflurane and subsequently administered ketamine and xylazine (200 + 100 μL, intraperitoneal). At the end of the dissection procedures, the female rat was euthanized with the administration of sodium pentobarbital ([…]). The embryos were used between embryonic day 16 (E16) and E19, considering the mating day as E0. The embryos were dissected from the uterus, and the heads were decapitated and placed in ice-cold 0.1 M PBS supplemented with 0.6% (w/v) glucose. The cortex dissection was performed under a Zeiss stereo microscope (Stemi DV4). Following trypsinization (0.05% trypsin/EDTA) and DNAse I treatment, the tissue pieces were mechanically dissociated, and the cells seeded in freshly prepared neurobasal medium (supplemented with 2% B-27, 100 U/mL of penicillin, 100 μg/mL of streptomycin, and 1% GlutaMAX^TM supplement) at a density of 150,000 cells/cm^2 in 96-well plates precoated, overnight, with 0.05 mg/mL PLL solution (prepared in 0.1 M borate buffer, pH 8.5). The cultures were maintained at 37 °C in a 5% CO2 air atmosphere. The medium was renewed at 4 days in vitro (DIV) by replacing half of the volume with fresh medium, and the cultures were used at 8 DIV.
The differentiated SH-SY5Y cells (25,000 cells/cm^2) and primary rat cortical cultures (150,000 cells/cm^2) were seeded onto 96-well plates as previously described.
Accordingly, 6 days after seeding (differentiated SH-SY5Y cells) or at 8 DIV (primary cultures), the cells were exposed, for 24 h (37 °C, 5% CO2), to different concentrations of the drugs (0–1000 µM). Thus, the tested concentrations ranged from 0 to 1000 µM for 2C-T-2 and 2C-T-4; 0 to 500 µM for 2C-T-7; 0 to 250 µM for 25T2-NBOMe, and 0 to 100 µM for 25T4-NBOMe and 25T7-NBOMe.
The NR uptake assay is based on the detection of viable cells through the incorporation of the NR dye by the cell’s lysosomes. In brief, after 24 h of exposure to the tested drugs, the differentiated SH-SY5Y cells and primary rat cortical cultures were incubated with NR (50 µg/mL in complete medium) for 90 or 210 min, respectively, at 37 °C, in a 5% CO2-95% air atmosphere. To extract the absorbed dye, an acidified ethanol solution was used, and the absorbance was then measured at 540 nm in a multi-well plate reader (PowerWaveX, BioTek Instruments, Winooski, VT, USA). The cytotoxicity was estimated by the percentage of NR uptake relative to the control cells, and a minimum of 4 independent experiments were conducted in triplicate.

[2] = system: differentiated SH-SY5Y cells; assay: Total glutathione (tGSH) levels, DTNB-GSH recycling assay; assay type: cell-based, human; details: control 100.0%
Text: Glutathione has a critical role in cellular physiology, playing multiple essential roles in maintaining cellular health and function, including antioxidant defense, detoxification, and cellular signaling. The 5,5′-dithiobis(2-nitrobenzoic acid) (DTNB)-GSH recycling assay was used to measure total GSH (tGSH), which includes the reduced (GSH) and oxidized (GSSG) forms of glutathione. The assay relies on the reaction of GSH with DTNB, producing the yellow-colored 5-thio-2-nitrobenzoic acid (TNB). Thus, the TNB generated is directly proportional to the amount of GSH present in the sample [31].
Thus, the SH-SY5Y cells were seeded onto 6-well plates (25,000 cells/cm^2) following the previously described seeding and differentiation protocol. On the day of the experiment, the cells were exposed to different concentrations of the tested drugs (EC20 and EC50) for 24 h (37 °C, 5% CO2). At the end of the incubation period, the cells were centrifuged (5 min, 250 g, 4 °C). For the analysis of extracellular GSH levels, the supernatants were collected, and proteins precipitated with 30% HClO4 for at least 30 min (4 °C). For the analysis of intracellular GSH levels, after collecting the supernatants, the cells were treated with 5% HClO4 for at least 30 min (4 °C). Subsequently, the acidic samples were collected from the plates and centrifuged (5 min, 16,000× g, 4 °C), and the supernatants were stored until further analysis (−80 °C). To assess protein content, the pellets were resuspended in 1M NaOH, maintained at 4 °C overnight, and stored until further analysis (−20 °C). A Bio-Rad DC™ protein assay kit (Bio-Rad Laboratories, Hercules, CA, USA) was used to analyze protein content, in accordance with the manufacturer’s guidelines.
Before the tGSH quantification, the acidic samples were diluted (1:2) with 5% HClO4, and the diluted samples/standards were neutralized with an ice-cold KHCO3 solution (1:1) and centrifuged (5 min, 16,000× g, 4 °C).
Then, 100 µL of supernatant from each sample/standard was transferred into a 96-well plate and 65 µL of an extemporaneous reagent solution (0.68 mM NADPH and 3.96 mM DTNB prepared in a 7.5 pH phosphate buffer) was added to each well, and the plates were incubated for 15 min at 30 °C. After 15 min, 40 μL of a 10 U/mL glutathione reductase solution was added to each well and the formation of 5-thio-2-nitrobenzoic acid (TNB) was monitored every 10 s for 3 min (kinetic mode) at 415 nm in a multi-well plate reader (PowerWaveX, BioTek Instruments, Winooski, VT, USA).
The GSH levels were standardized to protein content. The results are presented as a percentage relative to the control cells (0 µM). A minimum of 6 independent experiments were conducted, in duplicate.
Glutamate/cysteine ligase (GCL), also recognized as gamma-glutamylcysteine synthetase (γ-GCS), is a key enzyme in the first step of glutathione biosynthesis, as it catalyzes the reaction between glutamate and cysteine to produce γ-glutamylcysteine. […] The SH-SY5Y cells were seeded onto 6-well plates (25,000 cells/cm^2) following the previously described seeding and differentiation protocol. On the day of the experiment, the cells were incubated with BSO (100 µM) for 24 h (37 °C, 5% CO2) and the quantification of GSH intracellular levels was achieved according to the previously described method in Section 2.11.

Row | Structure (SMILES) | Bottom (baseline, % control) [1] [% control] | Top (maximal cell death, % control) [1] [% control] | EC50 [1] [µM] | intracellular tGSH levels, % of control cells ([2]; drug at its EC20, 24 h) [%] | intracellular tGSH levels, % of control cells ([2]; drug at its EC50, 24 h) [%]
1 | CCSc1cc(OC)c(CCN)cc1OC.Cl [2C-T-2, 2-(4-(ethylthio)-2,5-dimethoxyphenyl)ethan-1-aminium chloride] | 1.639 | 83.85 | 216 | 87.0 | 80.0
2 | COc1cc(SC(C)C)c(OC)cc1CCN.Cl [2C-T-4, 2-(4-(isopropylthio)-2,5-dimethoxyphenyl)ethan-1-aminium chloride] | 0.7855 | 82.56 | 110 | 81.4 | 75.8
3 | CCCSc1cc(OC)c(CCN)cc1OC.Cl [2C-T-7, 2-(2,5-dimethoxy-4-(propylthio)phenyl)ethan-1-aminium chloride] | 1.452 | 84.63 | 73.6 | 84.2 | 82.4
4 | CCSc1cc(OC)c(CCNCc2ccccc2OC)cc1OC.Cl [25T2-NBOMe, 2-(4-(ethylthio)-2,5-dimethoxyphenyl)-N-(2-methoxybenzyl)ethan-1-aminium chloride] | 3.637 | 81.45 | 26.5 | 54.4 | 49.2
5 | COc1cc(SC(C)C)c(OC)cc1CCNCc1ccccc1OC.Cl [25T4-NBOMe, 2-(4-(isopropylthio)-2,5-dimethoxyphenyl)-N-(2-methoxybenzyl)ethan-1-aminium chloride] | 2.059 | 83.51 | 19.9 | 71.2 | 60.3
6 | CCCSc1cc(OC)c(CCNCc2ccccc2OC)cc1OC.Cl [25T7-NBOMe, 2-(2,5-dimethoxy-4-(propylthio)phenyl)-N-(2-methoxybenzyl)ethan-1-aminium chloride] | 3.972 | 82.95 | 14.4 | 72.2 | 52.0
